Like-named read-outs stand apart in the source and are kept apart here.
Legend:
[1] = in vivo; cited from earlier work
[2] = tested on: NCI-H1568 cells (high MCL1); experiment: Cell proliferation and viability, CellTiter-Glo, 72 hours; assay type: cell-based; settings: for GI50: geometric mean
Summary of the method: (§1)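 Cells grown in RPMI-1640 with 10% FBS (Panc line with added insulin and FBS to 15%) were exposed to an 11-point half-log dilution series, typically 10 μM-100 pM, at 0.1% final DMSO. After incubation at 37° C, 5% CO2, ATP content was measured by luminescence and normalized to a time-zero plate and DMSO wells.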

[3] = tested on: Panc 05.04 cells (SF3b K700E mutant); experiment: as above; assay type: cell-based; settings: for GI50: geometric mean
Summary of the method: as §1

[4] = tested on: Ad2 variant pre-mRNAs spliced in HeLa S3 nuclear extracts; experiment: In vitro splicing assay (IVS), RT-qPCR of spliced product; assay type: biochemical; settings: for IC50: geometric mean; for Ratio Ad2.1/2.2: ratio of IVS IC50 Ad2.1 to Ad2.2
Summary of the method: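 Ad2 variant pre-mRNA (2 ng) with FTZΔi control RNA in HeLa S3 nuclear extract (8 μg) was pre-incubated with compound or DMSO for 15 min at 30 °C. Splicing ran 90 min at 30 °C after adding 0.5 mM ATP, creatine phosphate and MgCl2. Spliced product was quantified by TaqMan RT-qPCR, normalized to DMSO, and curve-fitted.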

SF3b complexes = target: T1, SF3b complexes (Homo sapiens, UniProt O75533+Q7RTV0); experiment: Scintillation proximity assay (SPA) with [3H]-labelled pladienolide probe; assay type: binding; settings: SF3B1 (WT); geometric mean; read-out: SPA-ATS GMean IC50 (nM) SF3B1 (WT)
T1 construct: endogenous in cells; host or cells: Nuclear extracts; A HeLa S3 extract preparation is described for the in vitro splicing assay
Summary of the method: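 SF3b complexes captured from nuclear extracts on anti-SF3B1 antibody SPA beads; test compounds pre-incubated 30 min before 2.5 nM [3H]-pladienolide probe added, then 30 min incubation. Bound probe read by scintillation; values from non-linear regression of concentration–response curves.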

[5] = NCI-H1568, read-out: CTGlo-ATS GMean GI50 (nM) 72 h NCIH1568.1, NCIH1568.1 cells, 72 h
[6] = NCIH1568.1 cells, 72 h, −100% cidal, 0% static, 100% maximal growth
[7] = PANC0504.1 cells, 72 h, −100% cidal, 0% static, 100% maximal growth
[8] = Panc 05.04, read-out: CTGlo-ATS GMean GI50 (nM) 72 h PANC0504.1, PANC0504.1 cells, 72 h
[9] = Ad2.1 pre-mRNA substrate, read-out: qPCR-IVS-ATS GMean IC50 (nM) Ad2.1
[10] = Ad2.2 pre-mRNA substrate, read-out: qPCR-IVS-ATS GMean IC50 (nM) Ad2.2
[11] = NCI-H1568, 72 h, read-out: CTGlo-ATS GMean GI50 (nM) 72 h NCIH1568.1, NCIH1568.1 cells, 72 h
[12] = Panc 05.04, 72 h, read-out: CTGlo-ATS GMean GI50 (nM) 72 h PANC0504.1, PANC0504.1 cells, 72 h
[13] = 72 h, NCIH1568.1, -100% = cidal, 0% = static, 100% = uninhibited growth
[14] = NCI-H1568, read-out: CTGlo-ATS GMean GI50 (nM) 72 h NCIH1568.1, 72 h, NCIH1568.1
[15] = 72 h, PANC0504.1, -100% = cidal, 0% = static, 100% = uninhibited growth
[16] = Panc 05.04, read-out: CTGlo-ATS GMean GI50 (nM) 72 h PANC0504.1, 72 h, PANC0504.1
[17] = NCI-H1568, 72 h, read-out: CTGlo-ATS GMean GI50 (nM) 72 h NCIH1568.1, 72 h, NCIH1568.1
[18] = Panc 05.04, 72 h, read-out: CTGlo-ATS GMean GI50 (nM) 72 h PANC0504.1, 72 h, PANC0504.1

Compound | plasma half-life [1] | GI50 [2, 5] [nM] | CTGlo-ATS Mean MinResponse % 72 h NCIH1568.1 [2, 6] [%] | CTGlo-ATS Mean MinResponse % 72 h PANC0504.1 [3, 7] [%] | GI50 [3, 8] [nM] | IC50 [4, 9] [nM] | IC50 [4, 10] [nM] | IC50 (SF3b complexes) [nM] | GI50 [2, 11] [nM] | GI50 [3, 12] [nM] | CTGlo-ATS Mean MinResponse % 72 h NCIH1568.1 [2, 13] [%] | GI50 [2, 14] [nM] | CTGlo-ATS Mean MinResponse % 72 h PANC0504.1 [3, 15] [%] | GI50 [3, 16] [nM] | Ratio Ad2.1/2.2 [4] | GI50 [2, 17] [nM] | GI50 [3, 18] [nM]
tremelimumab | approximately 22 days | – | – | – | – | – | – | – | – | – | – | – | – | – | – | – | –
C/C(=C\c1cc(F)cc(N2CCN(C(=O)C3CC3)CC2)c1)[C@H]1OC(=O)C[C@H](O)CC[C@H](C)[C@@H](OC(=O)N2CCN(C)CC2)/C=C/[C@@H]1C [Compound 109] | – | 2 | −84.780 | −84.673 | 3.55 | 26.5 | 14 | 2.85 | – | – | – | – | – | – | – | – | –
C/C(=C\c1cc(F)cc(N2CCOCC2)c1)[C@H]1OC(=O)C[C@H](O)CC[C@@](C)(O)[C@@H](OC(=O)N2CCN(C)CC2)/C=C/[C@@H]1C [Compound 61] | – | – | −38.996 | −93.599 | – | > 25000 | 114 | 13.5 | 46.8 | 42 | – | – | – | – | – | – | –
C/C(=C\c1ccc(C)c(S(=O)(=O)N2CCCC2)c1)[C@H]1OC(=O)C[C@H](O)CC[C@H](C)[C@@H](OC(=O)N2CCN(C)CC2)/C=C/[C@@H]1C [Compound 203, [(2S,3S,4E,6R,7S,10R)-10-hydroxy-3,7-dimethyl-2-[(E)-1-(4-methyl-3-pyrrolidin-1-ylsulfonylphenyl)prop-1-en-2-yl]-12-oxo-1-oxacyclododec-4-en-6-yl] 4-methylpiperazine-1-carboxylate] | – | – | – | – | – | 14400 | 69.7 | 10.1 | – | – | −36.664 | 47.3 | −94.627 | 45 | 207.149 | – | –
C/C(=C\c1cccc(S(=O)(=O)N2CCCCC2)c1)[C@H]1OC(=O)C[C@H](O)CC[C@H](C)[C@@H](OC(=O)N2CCN(C)CC2)/C=C/[C@@H]1C [Compound 213, [(2S,3S,4E,6R,7S,10R)-10-hydroxy-3,7-dimethyl-12-oxo-2-[(E)-1-(3-piperidin-1-ylsulfonylphenyl)prop-1-en-2-yl]-1-oxacyclododec-4-en-6-yl] 4-methylpiperazine-1-carboxylate] | – | – | – | – | – | 9.84 | 7.96 | 3.23 | – | – | −64.116 | 6.03 | −85.603 | 3.2 | 1.236 | – | –
C/C(=C\c1cc(F)cc(N2CCCC2=O)c1)[C@H]1OC(=O)C[C@H](O)CC[C@H](C)[C@@H](OC(=O)N2CCN(C)CC2)/C=C/[C@@H]1C [Compound 42] | – | 6.13 | −63.030 | −86.319 | 4.76 | 330 | 12.6 | 2.92 | – | – | – | – | – | – | – | – | –
C/C(=C\c1cc(F)c2cnn(C)c2c1)[C@H]1OC(=O)C[C@H](O)CC[C@H](C)[C@@H](OC(=O)N2CCN(C)CC2)/C=C/[C@@H]1C [Compound 101] | – | – | −64.073 | −94.474 | – | 1810 | 4.13 | 1.1 | 7.68 | 9.78 | – | – | – | – | – | – | –
C/C(=C\c1cc(F)cc(S(=O)(=O)N2CCCC2)c1)[C@H]1OC(=O)C[C@H](O)CC[C@H](C)[C@@H](OC(=O)N2CCN(C)CC2)/C=C/[C@@H]1C [Compound 197, [(2S,3S,4E,6R,7S,10R)-2-[(E)-1-(3-fluoro-5-pyrrolidin-1-ylsulfonylphenyl)prop-1-en-2-yl]-10-hydroxy-3,7-dimethyl-12-oxo-1-oxacyclododec-4-en-6-yl] 4-methylpiperazine-1-carboxylate] | – | – | – | – | – | 98.5 | 22.8 | 2.67 | – | – | −69.290 | – | −91.100 | – | 4.318 | 4.69 | 3.53
C/C(=C\c1cc(F)cc(N2CC[C@@H](F)C2)c1)[C@H]1OC(=O)C[C@H](O)CC[C@H](C)[C@@H](OC(=O)N2CCN(C)CC2)/C=C/[C@@H]1C [Compound 14] | – | – | −65.049 | −91.489 | – | 584 | 54.7 | 2.72 | 14.1 | 19.6 | – | – | – | – | – | – | –
C/C(=C\c1cccc(COC(=O)N(C)C)c1)[C@H]1OC(=O)C[C@H](O)CC[C@H](C)[C@@H](OC(=O)N2CCN(C)CC2)/C=C/[C@@H]1C [Compound 258, [(2S,3S,4E,6R,7S,10R)-2-[(E)-1-[3-(dimethylcarbamoyloxymethyl)phenyl]prop-1-en-2-yl]-10-hydroxy-3,7-dimethyl-12-oxo-1-oxacyclododec-4-en-6-yl] 4-methylpiperazine-1-carboxylate] | – | – | – | – | – | > 25000 | 73.8 | 11.7 | – | – | −12.669 | – | −65.918 | – | 338.606 | 29.8 | 28.7
C/C(=C\c1ccc(S(=O)(=O)NC2CCCC2)cc1F)[C@H]1OC(=O)C[C@H](O)CC[C@H](C)[C@@H](OC(=O)N2CCN(C)CC2)/C=C/[C@@H]1C [Compound 57] | – | 41.3 | −47.783 | −71.380 | 49.7 | > 25000 | 228 | 9.16 | – | – | – | – | – | – | – | – | –
C/C(=C\c1cc(F)cc(NC(=O)CC2CC2)c1)[C@H]1OC(=O)C[C@H](O)CC[C@H](C)[C@@H](OC(=O)N2CCN(C)CC2)/C=C/[C@@H]1C [Compound 250, [(2S,3S,4E,6R,7S,10R)-2-[(E)-1-[3-[(2-cyclopropylacetyl)amino]-5-fluorophenyl]prop-1-en-2-yl]-10-hydroxy-3,7-dimethyl-12-oxo-1-oxacyclododec-4-en-6-yl] 4-methylpiperazine-1-carboxylate] | – | – | – | – | – | 2190 | 44.1 | 3.63 | – | – | −58.677 | 15.6 | −94.381 | 23.1 | 49.517 | – | –
C/C(=C\c1cccc(N(C)C2COC2)c1)[C@H]1OC(=O)C[C@H](O)CC[C@H](C)[C@@H](OC(=O)N2CCN(C)CC2)/C=C/[C@@H]1C [Compound 171] | – | – | −50.083 | −92.998 | – | 18800 | 42.6 | 1.51 | 19.6 | 23.6 | – | – | – | – | – | – | –

Source: patent publication US11679107B2 (Eisai R&D Management Co., Ltd., priority 2018, dated 2023)
